Experimental data taken from patent US20060069132A1, “Azolecarboxamide herbicides” (priority 2004, published 2006).

Key:
lambsquarters = test: Test C pre-/postemergence herbicide test; type: in vivo, Chenopodium album
Outline: (§1)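 Visual injury scores run from 0 (no effect) to 100 (complete control), assessed relative to untreated controls 12 to 14 days after treatment in the greenhouse. Chemicals were formulated in a non-phytotoxic solvent mixture with surfactant and applied to soil after planting or to emerged plants at the 1- to 4-leaf stage.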

goosegrass = test: Test C pre-/postemergence herbicide test; type: in vivo, Eleusine indica
Outline: as §1

large crabgrass = test: Test A pre-/postemergence herbicide test; type: in vivo, Digitaria sanguinalis
Outline: (§2)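 Pre: seeded sandy loam, directed soil spray, compound in non-phytotoxic solvent + surfactant. Post: 1–2-leaf plants (2–10 cm), sprayed to runoff. Greenhouse ~10 d; visual injury vs untreated, 0–100 scale.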

rice = test: Test B pre-/postemergence herbicide test; type: in vivo, Oryza sativa; settings: preemergence; for Plant response rating, Rice: 500 g ai/ha; for Rice plant response rating (0 to 100 scale): 125 g ai/ha
Outline: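 Evaluation is visual, comparing treated with control plants on a scale where 0 means no effect and 100 means full control. Treatments were preemergence, or postemergence on seedlings 2–18 cm tall, and held 13–15 days in the greenhouse.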

pigweed = test: Test C pre-/postemergence herbicide test; type: in vivo, Amaranthus retroflexus
Outline: as §1

giant foxtail = test: Test C pre-/postemergence herbicide test; type: in vivo, Setaria faberi
Outline: as §1

redroot pigweed = test: Test A pre-/postemergence herbicide test; type: in vivo, Amaranthus retroflexus
Outline: as §2

[1] = 125 g ai/ha, scale 0 (no effect) to 100 (complete control), visual, 12 to 14 days, preemergence
[2] = Postemergence, 500 g ai/ha, scale 0 to 100
[3] = Postemergence, 250 g ai/ha, scale 0 to 100, 0 no effect, 100 complete control
[4] = Preemergence, 500 g ai/ha, scale 0 to 100, 0 no effect, 100 complete control
[5] = postemergence, 125 g ai/ha, scale 0 to 100
[6] = Postemergence, 500 g ai/ha, 0 to 100 scale, 0 no effect, 100 complete control
[7] = Postemergence, 2000 g ai/ha, 0 to 100 scale, 0 no effect, 100 complete control
[8] = Preemergence, 2000 g ai/ha, visual rating, 0 to 100 scale (0 no effect, 100 complete control)
[9] = visual rating 0-100, 0 no effect, 100 complete control
[10] = preemergence, 500 g ai/ha, visual injury, 0 to 100 scale (0 no effect, 100 complete control)
[11] = 62 g ai/ha, preemergence, scale 0 to 100
[12] = 250 g ai/ha, scale 0-100, preemergence
[13] = 0 = no effect, 100 = complete control
[14] = 500 g ai/ha, scale 0 to 100 (0 no effect, 100 complete control), visual, 12 to 14 days, preemergence

| SMILES | Plant response rating, Lambsquarters (lambsquarters; [1]) | Lambsquarters plant response rating (lambsquarters; [4]) | Plant response rating, Goosegrass (goosegrass; [1]) | Goosegrass plant response rating (goosegrass; [4]) | Crabgrass, Large plant response rating (large crabgrass; [6]) | Plant response rating, Crabgrass, Large (large crabgrass; [7]) | Crabgrass, Large plant response rating (large crabgrass; [8]) | Plant response rating, Rice (rice; [9]) | Plant response rating, Pigweed (pigweed; [1]) | Pigweed plant response rating (pigweed; [4]) | Plant response rating, Foxtail, Giant (giant foxtail; [1]) | Foxtail, Giant plant response rating (giant foxtail; [4]) | Pigweed plant response rating (redroot pigweed; [6]) | Plant response rating, Pigweed (redroot pigweed; [7]) | Pigweed plant response rating (redroot pigweed; [8]) | Pigweed plant response rating (redroot pigweed; [10]) | Plant response rating, Lambsquarters (lambsquarters; [11]) | Plant response rating, Lambsquarters (lambsquarters; [12]) | Plant response rating, Goosegrass (goosegrass; [11]) | Plant response rating, Goosegrass (goosegrass; [12]) | also measured |
| --- | --- | --- | --- | --- | --- | --- | --- | --- | --- | --- | --- | --- | --- | --- | --- | --- | --- | --- | --- | --- | --- |
| CCn1nc(C(C)(C)C)cc1C(=O)Nc1cccc(SC(F)(F)F)c1 [Compound 130] | 30 | 80 | 20 | 50 | 20 | 20 | 60 | 0 | 90 | 100 | 45 | 95 | 50 | 65 | 65 | 35 |  |  |  |  | Plant response rating (0 = no effect, 100 = complete control), Lambsquarters (lambsquarters; 62 g ai/ha, preemergence): 10; Lambsquarters plant response rating (lambsquarters; [2]): 100; Plant response rating, Lambsquarters (lambsquarters; [3]): 100; Plant response rating, Lambsquarters (lambsquarters; [5]): 100; Plant response rating (0 = no effect, 100 = complete control), Goosegrass (goosegrass; 62 g ai/ha, preemergence): 10; Goosegrass plant response rating (goosegrass; [2]): 60; Plant response rating, Goosegrass (goosegrass; [3]): 60; Plant response rating, Goosegrass (goosegrass; [5]): 20; Crabgrass, Large plant response rating (large crabgrass; Preemergence, 500 g ai/ha, visual rating, 0 to 100 scale (0 no effect, 100 complete control)): 45; Plant response rating (0 = no effect, 100 = complete control), Pigweed (pigweed; 62 g ai/ha, preemergence): 80; Pigweed plant response rating (pigweed; [2]): 100; Plant response rating, Pigweed (pigweed; [3]): 100; Plant response rating, Pigweed (pigweed; [5]): 100; Plant response rating (0 = no effect, 100 = complete control), Foxtail, Giant (giant foxtail; 62 g ai/ha, preemergence): 40; Plant response rating, Foxtail, Giant (giant foxtail; 250 g ai/ha, scale 0 to 100 (0 no effect, 100 complete control), visual, 12 to 14 days, preemergence): 65; Foxtail, Giant plant response rating (giant foxtail; [2]): 30; Plant response rating, Foxtail, Giant (giant foxtail; [3]): 15; Plant response rating, Foxtail, Giant (giant foxtail; [5]): 10 |
| CC(=NO)c1cccc(NC(=O)c2sc(C(C)(C)C)nc2C)c1 [Compound 195] | 0 | 95 | 100 | 100 | 10 | 25 | 95 | 20 | 60 | 90 | 0 | 20 | 5 | 25 | 0 | 0 | 0 | 10 | 100 | 100 | Crabgrass, Large plant response rating (large crabgrass; [10]): 75; Rice plant response rating (0 to 100 scale) (rice; [13]): 10; Plant response rating, Pigweed (pigweed; [11]): 55; Plant response rating, Pigweed (pigweed; [12]): 90; Plant response rating, Foxtail, Giant (giant foxtail; [11]): 0; Plant response rating, Foxtail, Giant (giant foxtail; [12]): 0 |
| CCNC(=O)c1cccc(NC(=O)c2sc(C(C)(C)C)nc2C)c1 [Compound 198] | 100 | 100 | 80 | 100 | 20 | 65 | 90 | 80 | 100 | 100 | 10 | 100 | 55 | 75 | 100 | 95 | 85 | 100 | 20 | 95 | Crabgrass, Large plant response rating (large crabgrass; [10]): 80; Rice plant response rating (0 to 100 scale) (rice; [13]): 30; Plant response rating, Pigweed (pigweed; [11]): 100; Plant response rating, Pigweed (pigweed; [12]): 100; Plant response rating, Foxtail, Giant (giant foxtail; [11]): 0; Plant response rating, Foxtail, Giant (giant foxtail; [12]): 60 |
| CCNC(=O)c1cccc(NC(=O)c2sc(C(C)(C)C)nc2CC)n1 [Compound 213] | 95 |  | 60 |  | 20 | 30 | 95 |  | 100 |  | 50 |  | 30 | 40 | 95 | 75 | 80 | 100 | 0 | 80 | Plant response rating, Lambsquarters (lambsquarters; [14]): 100; Plant response rating, Goosegrass (goosegrass; [14]): 90; Crabgrass, Large plant response rating (large crabgrass; [10]): 55; Rice plant response rating (0 to 100 scale) (rice; [13]): 0; Plant response rating, Rice (rice; visual rating, 0 = no effect, 100 = complete control): 40; Plant response rating, Pigweed (pigweed; [11]): 80; Plant response rating, Pigweed (pigweed; [12]): 100; Plant response rating, Pigweed (pigweed; [14]): 100; Plant response rating, Foxtail, Giant (giant foxtail; [11]): 30; Plant response rating, Foxtail, Giant (giant foxtail; [12]): 95; Plant response rating, Foxtail, Giant (giant foxtail; [14]): 100 |
